Source: US8377943B2, “2,4-diaminopyrimidine derivates as PTK2-inhibitors for the treatment of abnormal cell growth” (Boehringer Ingelheim International GmbH, priority 2008, dated 2013)

Assays:
PTK2 = target: T1, PTK2 (Homo sapiens, UniProt Q05397); assay: PTK2 Enzyme Test (DELFIA assay, poly-Glu-Tyr substrate); assay type: biochemical; settings: active PTK2 enzyme, 50 μM ATP in ATP Mix, 1 h pre-incubation
T1 construct: purchased Invitrogen PV3832
Experimental: This test uses active PTK2 enzyme (Invitrogen Code PV3832) and poly-Glu-Tyr (4:1, Sigma P-0275) as the kinase substrate. The kinase activity is detected by means of the phosphorylation of the substrate in a DELFIA™ assay. The phosphorylated substrate is detected with the Europium-labelled phosphotyrosine antibody PY20 (Perkin Elmer, No.: AD0038).
In order to determine concentration-activity curves with PTK2-inhibitors the compounds are serially diluted in 10% DMSO/H2O and 10 μL of each dilution are dispensed per well in a 96-well microtitre plate (clear U-shaped base plate, Greiner No. 650101) (the inhibitors are tested in duplicates) and mixed with 10 μL/well of PTK2 kinase (0.01 μg/well). PTK2 kinase is diluted accordingly beforehand with kinase dilution buffer (20 mM TRIS/HCl pH 7.5, 0.1 mM EDTA, 0.1 mM EGTA, 0.286 mM sodium orthovanadate, 10% glycerol with the addition of freshly prepared BSA (fraction V 1 mg/mL) and DTT (1 mM)). The test compound and the PTK2 kinase are pre-incubated for 1 h at RT and shaken at 500 rpm. Then 20 μL ATP Mix (30 mM TRIS/HCl pH 7.5, 0.02% Brij, 0.2 mM sodium orthovanadate, 10 mM magnesium acetate, 0.1 mM EGTA, 1× Phosphatase Inhibitor Cocktail 1 (Sigma, No.: P2850), 50 μM ATP (Sigma, No.: A3377; 15 mM stock solution)) are added. The reaction is started by the addition of 10 μL/well of poly (Glu,Tyr) substrate (25 μg/well poly (Glu,Tyr), 0.05 μg/well biotinylated poly (Glu,Tyr) dissolved in 250 mM TRIS/HCl pH 7.5, 9 mM DTT)—the final concentration of DMSO is 2%. After 1 h kinase reaction (the plates are shaken at 500 rpm), the reaction is stopped by the addition of 12 μL/well of 100 mM EDTA, pH 8. And shaken for a further 5 min at RT (500 U/min).
55 μL of the reaction mixture are transferred into a streptavidin plate (Strepta Well High Bind (transparent, 96-well) made by Roche, No.: 11989685001) and incubated for 1 h at RT (shaking at 500 rpm). Then the microtitre plate is washed three times with 200 μL/well D-PBS (Invitrogen, No.:14190). 100 μL of 1:2000 diluted DELFIA Eu-N1 Anti-Phosphotyrosine PY20 antibody (Perkin Elmer, No.: AD0038, 1:2000 diluted in DELFIA test buffer (Perkin Elmer, No.: 1244-111)) is then added and it is incubated for 1 h at RT (shaking at 500 rpm). Then the plate is washed three times with 200 μL/well DELFIA washing buffer (Perkin Elmer, No.: 1244-114), 200 μL/well strengthening solution (Perkin Elmer, No.: 1244-105) is added and the whole is incubated for 10 min at RT (shaking at 300 rpm).
The time-delayed europium fluorescence is then measured in a microtitre plate reader (Victor, Perkin Elmer). The positive control consists of wells that contain solvent (2% DMSO in test buffer) and display uninhibited kinase activity. Wells that contain test buffer instead of enzyme act as a control for the background kinase activity.
The IC50 values are determined from concentration-activity analyses by iterative calculation using a sigmoidal curve analysis algorithm (FIFTY, based on GraphPAD Prism Version 3.03) with a variable Hill coefficient.

[1] = target: T2, PTK2-phosphorylation at tyrosine 397 (pY397) (Homo sapiens, UniProt Q05397); assay: Phospho-PTK2 (pY397) Assay in PC-3 cells; assay type: cell-based; settings: PC-3 prostate carcinoma cells, 2 h incubation; read-out: PC3pPTK2 Y397 EC50
T2 construct: endogenous in cells; host or cells: PC-3 (ATCC CRL-1435)
T2 sequence (Q05397 whole entry): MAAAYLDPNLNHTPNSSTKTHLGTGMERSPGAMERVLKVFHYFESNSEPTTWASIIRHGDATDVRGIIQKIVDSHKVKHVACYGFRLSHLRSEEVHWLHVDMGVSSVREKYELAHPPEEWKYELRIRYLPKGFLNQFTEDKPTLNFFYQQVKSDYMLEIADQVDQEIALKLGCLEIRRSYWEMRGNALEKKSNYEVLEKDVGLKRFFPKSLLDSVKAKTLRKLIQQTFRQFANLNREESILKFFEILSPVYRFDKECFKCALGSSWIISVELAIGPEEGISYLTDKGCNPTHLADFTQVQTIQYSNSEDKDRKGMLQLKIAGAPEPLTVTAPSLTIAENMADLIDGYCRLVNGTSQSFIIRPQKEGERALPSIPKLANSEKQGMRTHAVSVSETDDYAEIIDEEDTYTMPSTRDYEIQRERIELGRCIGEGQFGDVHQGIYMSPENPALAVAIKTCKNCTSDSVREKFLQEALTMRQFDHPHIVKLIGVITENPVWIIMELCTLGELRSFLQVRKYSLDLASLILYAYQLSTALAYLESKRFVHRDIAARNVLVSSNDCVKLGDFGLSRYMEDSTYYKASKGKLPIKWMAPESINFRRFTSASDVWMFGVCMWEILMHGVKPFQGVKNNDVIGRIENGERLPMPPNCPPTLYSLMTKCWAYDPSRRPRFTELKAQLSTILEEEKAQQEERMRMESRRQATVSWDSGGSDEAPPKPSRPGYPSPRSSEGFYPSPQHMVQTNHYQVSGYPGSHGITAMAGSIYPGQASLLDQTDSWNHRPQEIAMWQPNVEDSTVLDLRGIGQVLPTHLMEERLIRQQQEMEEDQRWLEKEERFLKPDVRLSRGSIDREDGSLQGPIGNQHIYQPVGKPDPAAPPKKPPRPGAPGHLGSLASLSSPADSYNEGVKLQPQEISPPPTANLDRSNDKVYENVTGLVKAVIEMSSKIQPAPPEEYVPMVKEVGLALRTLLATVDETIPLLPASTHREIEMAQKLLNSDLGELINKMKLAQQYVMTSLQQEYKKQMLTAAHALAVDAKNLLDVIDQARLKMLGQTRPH
Experimental: This cellular test is used to determine the influence of PTK2-inhibitors on the state of the PTK2-phosphorylation at tyrosine 397 (pY397).
PC-3 cells (prostate carcinoma, ATCC CRL-1435) are grown in cell culture flasks (175 cm^2) with F12 Kaighn's Medium (Gibco, No.: 21127) with the addition of 10% foetal calf serum (Invitrogen, No.: 16000-044). The cultures are incubated in the incubator at 37° C. and 5% CO2 and run twice a week.
For the test, 2×10^4 cells pro well/[…] are plated out in 96-well microtitre plates (Costar, No.: 3598) and incubated overnight in the incubator at 37° C. and 5% CO2. The test compounds (10 μL from serial dilution) are added the next day. The concentration of the test compounds usually covers a range of 50 μM and 0.8 nM. The test compounds (stock solution: 10 mM in 100% DMSO) are diluted in medium/medium 10% DMSO such that the final concentration is 1% DMSO. The cells are then incubated in the incubator at 37° C. and 5% CO2 for 2 h. Then the culture supernatant is removed and the cells are fixed with 150 μL 4% formaldehyde in D-PBS for 20 min at RT. The cell lawn is washed five times with 200 μL 0.1% Triton X-100 in D-PBS for 5 min in each case and then incubated for 90 min with blocking buffer (5% skimmed milk powder (Maresi Fixmilch) in TBST (25 mM Tris/HCl, pH 8.0, 150 mM NaCl, 0.05% Tween 20). The blocking buffer is replaced by 50 μL of the first antibody anti-phospho PTK2 [pY397] rabbit monoclonal (Invitrogen/Biosource, No.: 44-625G), which is diluted 1:200 in blocking buffer. For control purposes, alternatively a PTK2 [total] antibody (clone 4.47 mouse monoclonal, Upstate, No.: 05-537), diluted 1:400 in blocking buffer is used. This incubation is carried out at 4° C. overnight. Then the cell lawn is washed five times with 100 μL of 0.1% Tween in D-PBS for 5 min in each case and 50 μL/well of second antibody are added. In order to detect bound phospho-PTK2 [pY397] antibody a goat-anti-rabbit antibody is used which is coupled with horseradish peroxidase (Dako, No.: P0448; 1:500 dilution in blocking buffer). In order to detect bound PTK2 [total]-antibodies a rabbit-anti-mouse antibody is used, which is also coupled with horseradish peroxidase (Dako, No.: PO161; 1:1000 dilution in blocking buffer). This incubation is carried out for 1 h at RT with gentle shaking. The cell lawn is then again washed five times with 100 μL of 0.1% Tween in D-PBS for 5 min in each case. […] The EC50 values are determined from concentration-activity analyses by iterative calculation with the aid of a sigmoidal curve analysis algorithm (FIFTY, based on GraphPAD Prism Version 3.03) with a variable Hill coefficient.

T1 sequence (Q05397 whole entry): as above

Row | SMILES | IC50 (PTK2) [nM] | EC50 [1] [nM]
1 | COc1cc(C(=O)NC[C@@H](C)N2CCCC2)ccc1Nc1ncc(C(F)(F)F)c(NCc2ccc(C)cc2N(C)S(C)(=O)=O)n1 [Example 6] | 3 | 0.13
2 | COc1cc(C(=O)NC2CCCN(C)C2)ccc1Nc1ncc(C(F)(F)F)c(NCc2ccc(C)cc2N(C)S(C)(=O)=O)n1 (stereo not shown) [Example 7] | 3 | 0.14
3 | COc1cc(C(=O)NC2CCN(C(C)=O)CC2)ccc1Nc1ncc(C(F)(F)F)c(NCc2ccc(C)cc2N(C)S(C)(=O)=O)n1 [Example 9] | 6 | 0.14
4 | COc1cc(C(=O)NC2CC(C)(C)N(C)C(C)(C)C2)ccc1Nc1ncc(C(F)(F)F)c(NCc2ccc(C)cc2N(C)S(C)(=O)=O)n1 [Example 11] | 4 | 0.16
5 | COc1cc(C(=O)NCCn2ccnc2)ccc1Nc1ncc(C(F)(F)F)c(NCc2ccc(C)cc2N(C)S(C)(=O)=O)n1 [Example 13] | 2 | 0.16
6 | COCCNC(=O)c1ccc(Nc2ncc(C(F)(F)F)c(NCc3ccc(C)cc3N(C)S(C)(=O)=O)n2)c(OC)c1 [Example 14] | 4 | 0.17
7 | COc1cc(C(=O)NC2CCN(C(C)C)CC2)ccc1Nc1ncc(C(F)(F)F)c(NCc2ccc(C)cc2N(C)S(C)(=O)=O)n1 [Example 15] | 3 | 0.18
8 | COc1cc(C(=O)NC2CCN(C3CCCCC3)CC2)ccc1Nc1ncc(C(F)(F)F)c(NCc2ccc(C)cc2N(C)S(C)(=O)=O)n1 [Example 16] | 4 | 0.19
9 | CCN1CCC[C@@H](NC(=O)c2ccc(Nc3ncc(C(F)(F)F)c(NCc4ccc(C)cc4N(C)S(C)(=O)=O)n3)c(OC)c2)C1 [Example 17] | 2 | 0.19
10 | COc1cc(C(=O)NC2CCN(CC(F)F)CC2)ccc1Nc1ncc(C(F)(F)F)c(NCc2ccc(C)cc2N(C)S(C)(=O)=O)n1 [Example 18] | 3 | 0.2
11 | CNC(=O)c1cc(OC)c(Nc2ncc(C(F)(F)F)c(NCc3ccc(OC)cc3N(C)S(C)(=O)=O)n2)cc1F [Example 127] | 4 | 
12 | COc1ccc(CNc2nc(Nc3cc(F)c(C(=O)NC(C)(C)C)cc3OC)ncc2C(F)(F)F)c(N(C)S(C)(=O)=O)c1 [Example 128] | 22 | 
13 | COc1cc(C(=O)N[C@@H]2CCN(C)C[C@H]2F)ccc1Nc1ncc(C(F)(F)F)c(NCc2ccc(C)cc2N(C)S(C)(=O)=O)n1 [Example 131] | 4 | 
14 | CCc1cc(C(=O)NC2CCOCC2)ccc1Nc1ncc(C(F)(F)F)c(NCc2ccc(C)cc2N(C)S(C)(=O)=O)n1 [Example 132] | 4 | 

The remaining molecules from weak to strong by IC50 (PTK2), led by results:

Row | IC50 (PTK2) [nM] | EC50 [1] [nM] | SMILES
15 | 2 | 0.05 | CCN1CCC(NC(=O)c2cc(OC)c(Nc3ncc(C(F)(F)F)c(NCc4ccc(C)cc4N(C)S(C)(=O)=O)n3)cc2F)CC1 [Example 1]
16 | 2 | 0.14 | CCN1CCC(NC(=O)c2ccc(Nc3ncc(C(F)(F)F)c(NCc4ccc(C)cc4N(C)S(C)(=O)=O)n3)c(OC)c2)CC1 [Example 8]
17 | 2 | 0.14 | COc1cc(C(=O)N[C@@H]2CCCN(C(C)C)C2)ccc1Nc1ncc(C(F)(F)F)c(NCc2ccc(C)cc2N(C)S(C)(=O)=O)n1 [Example 10]
18 | 2 | 0.16 | CCN(CC)CCNC(=O)c1ccc(Nc2ncc(C(F)(F)F)c(NCc3ccc(C)cc3N(C)S(C)(=O)=O)n2)c(OC)c1 [Example 12]
19 | 1 | 0.11 | COc1cc(CN(C)C)ccc1Nc1ncc(C(F)(F)F)c(NCc2ccc(C)cc2N(C)S(C)(=O)=O)n1 [Example 3]
20 | 1 | 0.11 | COc1cc(C(=O)NCCN(C)C)ccc1Nc1ncc(C(F)(F)F)c(NCc2ccc(C)cc2N(C)S(C)(=O)=O)n1 [Example 4]
21 | 1 |  | Cc1ccc(CNc2nc(Nc3cc(F)c(N4CCNCC4)cc3F)ncc2C(F)(F)F)c(N(C)S(C)(=O)=O)c1 [Example 129]
22 | 1 |  | CNC(=O)c1ccc(Nc2ncc(C(F)(F)F)c(NCc3ccc(C)cc3N(C)S(C)(=O)=O)n2)c(C)c1 [Example 130]
23 | 0.86 | 0.12 | COc1cc(CN(C)C)ccc1Nc1ncc(C(F)(F)F)c(NCc2ccc(F)cc2N(C)S(C)(=O)=O)n1 [Example 5]
